Data reported in the NIST ThermoML archive (doi:10.1016/j.jct.2007.03.009).
Several values for one entry are separate records, joined by “and”; a condition that tells them apart may be missing. Identical values can stand only once. ± gives the expanded uncertainty stated by the source.

Conditions: for mass density: 298 K, 101.33 kPa, Liquid, masses and of the volumes of pellets.; for Normal melting temperature / vapor or sublimation pressure: Crystal; for Normal melting temperature: DTA; for vapor or sublimation pressure: Knudsen effusion

mass density [kg/m3] | Normal melting temperature [°C] | Structure (SMILES) | vapor or sublimation pressure (323.27 K) | vapor or sublimation pressure (325.24 K) | vapor or sublimation pressure (327.12 K) | vapor or sublimation pressure (329.26 K) | vapor or sublimation pressure (331.23 K) | vapor or sublimation pressure (333.11 K) | vapor or sublimation pressure (335.12 K) | vapor or sublimation pressure (337.26 K) | vapor or sublimation pressure (339.12 K) | vapor or sublimation pressure (341.22 K) | vapor or sublimation pressure (343.25 K)
1051 ± 21 | 72.8 ± 0.5 | O=C1c2ccccc2C(=O)N1CCCBr [N-(3-bromopropyl)phthalimide] | – | – | – | – | – | – | – | – | – | – | –
1323 ± 26 | 81.5 ± 0.5 | O=C1c2ccccc2C(=O)N1CCBr [N-(2-bromoethyl)phthalimide] | – | – | – | – | – | – | – | – | – | – | –
1081 ± 22 | 133.5 ± 0.5 | O=C1c2ccccc2C(=O)N1CCl [N-(chloromethyl)phthalimide] | 0.000111 ± 2e-05 kPa and 0.000106 ± 2e-05 kPa | 0.000138 ± 2.1e-05 kPa and 0.000137 ± 2.1e-05 kPa and 0.000132 ± 2.1e-05 kPa | 0.000171 ± 2.1e-05 kPa and 0.000168 ± 2.1e-05 kPa and 0.000169 ± 2.1e-05 kPa | 0.000218 ± 2.1e-05 kPa and 0.000207 ± 2.1e-05 kPa and 0.00022 ± 2.1e-05 kPa | 0.000282 ± 2.2e-05 kPa and 0.00027 ± 2.2e-05 kPa and 0.000262 ± 2.2e-05 kPa | 0.00033 ± 2.3e-05 kPa and 0.000328 ± 2.3e-05 kPa and 0.000329 ± 2.3e-05 kPa | 0.00042 ± 2.5e-05 kPa and 0.000413 ± 2.5e-05 kPa and 0.000402 ± 2.5e-05 kPa | 0.000534 ± 2.8e-05 kPa and 0.000519 ± 2.7e-05 kPa and 0.000507 ± 2.7e-05 kPa | 0.000648 ± 3e-05 kPa and 0.000644 ± 3e-05 kPa and 0.000618 ± 3e-05 kPa | 0.000835 ± 3.6e-05 kPa and 0.000801 ± 3.5e-05 kPa and 0.00077 ± 3.4e-05 kPa | 0.001007 ± 4.1e-05 kPa and 0.000989 ± 4e-05 kPa and 0.000946 ± 3.9e-05 kPa
1218 ± 24 | 82.8 ± 0.5 | O=C1c2ccccc2C(=O)N1CCCl [N-(2-chloroethyl)phthalimide] | – | – | – | – | – | – | – | – | – | – | –
